Entries after “also recorded” stand apart in the source; their conditions may differ.
Tests used:
AurA [1] = biological target: T1, AurA (Homo sapiens, UniProt O14965); assay: KINOMEscan primary screen against AurA; format: binding; conditions: % of control
T1 sequence (O14965 1-403): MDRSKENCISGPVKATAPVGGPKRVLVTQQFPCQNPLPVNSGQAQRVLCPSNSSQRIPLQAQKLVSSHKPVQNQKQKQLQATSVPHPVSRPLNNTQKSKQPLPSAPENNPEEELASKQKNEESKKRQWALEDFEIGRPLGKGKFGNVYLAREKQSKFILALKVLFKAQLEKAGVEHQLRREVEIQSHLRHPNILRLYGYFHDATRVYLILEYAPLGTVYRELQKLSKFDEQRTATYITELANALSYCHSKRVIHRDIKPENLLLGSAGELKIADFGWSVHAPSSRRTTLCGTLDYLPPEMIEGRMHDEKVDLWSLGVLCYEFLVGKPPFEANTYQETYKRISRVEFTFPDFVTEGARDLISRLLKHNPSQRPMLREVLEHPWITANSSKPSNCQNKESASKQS
Experimental: (§1) Compounds were initially tested in a primary screen against TrkA (at 10 and 100 nM) and AurA (at 100 nM and 1 μM) using the KINOMEscan technology from DiscoverX Corporation, Fremont, Calif., USA (https://www.discoverx.com/services/drug-discovery-development-services/kinase-profiling/kinomescan).

[2] = biological target: full-length human TrkA receptor (Homo sapiens, UniProt P04629); assay: PathHunter cellular functional assay, antagonism of β-NGF; format: cell-based; conditions: antagonism at EC80 (0.03 μg/ml) of β-NGF; read-out: Cellular assay [RC50]
From the text: The two compounds a1 and b7 were additionally tested in a functional assay using the PathHunter® technology (DiscoverX Corporation, Freemont, Calif., USA; https://www.discoverx.com/technologies-platforms/enzyme-fragment-complementation-technoloqy/cell-based-efc-assays/protein-protein-interactions/kinases-cell-based-(rtk-ctk)). In this assay, the full-length human TrkA receptor (i.e. including ligand-binding and kinase domains) is expressed as a C-terminal (intracellular) fusion with a small peptide epitope, called Prolink™ (PK). Furthermore, a SH2 domain containing protein (i.e. Shc1) is co-expressed with a larger Enzyme Acceptor (EA) fragment. Activation of the TrkA receptor by adding the agonist ligand (β-NGF), leads to the auto-phosphorylation of the kinase and subsequent binding of the Shc1-EA protein. That recruitment results in an active B-galactosidase enzyme that is detected by addition of a chemiluminescent substrate.
Compounds were tested for antagonism using EC80 concentration (i.e. 0.03 μg/ml) of β-NGF. Data was normalized to the maximal and minimal response observed in the presence of EC80 agonist ligand (3-NGF) and vehicle (DMSO, final concentration 1%), respectively.

panel of 97 kinases = assay: Selectivity profiling, scanEDGE kinase panel (KINOMEscan); format: binding; conditions: 100 nM, cut-off <35% ctrl
Experimental: Selectivity profiling was done over a panel of 97 kinases at 100 nM concentration (scanEDGE assay panel from Discover X, which also uses the KINOMEscan technology, whereat KIT(D816V) and KIT (V559D, T6701) were replaced by TrkB and TrkC). […] The employed profiling panel consisted of the following kinases: ABL1(T3151)-phosphorylated, ABL1-nonphosphorylated, ABL1-phosphorylated, ACVR1B, ADCK3, AKT1, AKT2, ALK, AURKA, AURKB, AXL, BMPR2, BRAF, BRAF (V600E), BTK, CDK11, CDK2, CDK3, CDK7, CDK9, CHEK1, CSF1R, CSNK1D, CSNK1G2, DCAMKL1, DYRK1B, EGFR, EGFR (L858R), EPHA2, ERBB2, ERBB4, ERK1, FAK, FGFR2, FGFR3, FLT3, GSK3B, IGF1R, IKK-alpha, IKK-beta, INSR, JAK2 (JH1domain-catalytic), JAK3 (JH1domain-catalytic), JNK1, JNK2, JNK3, KIT, LKB1, MAP3K4, MAPKAPK2, MARK3, MEK1, MEK2, MET, MKNK1, MKNK2, MLK1, p38-alpha, p38-beta, PAK1, PAK2, PAK4, PCTK1, PDGFRA, PDGFRB, PDPK1, PIK3C2B, PIK3CA, PIK3CG, PIM1, PIM2, PIM3, PKAC-alpha, PLK1, PLK3, PLK4, PRKCE, RAF1, RET, RIOK2, ROCK2, RSK2 (Kin. Dom. 1-N-terminal), SNARK, SRC, SRPK3, TGFBR1, TIE2, TRKA, TRKB, TRKC, TSSK1B, TYK2 (JH1domain-catalytic), ULK2, VEGFR2, YANK3, ZAP70

AurA [3] = biological target: T1, AurA; assay: KdELECT Kd measurement (KINOMEscan), AurA; format: binding
Experimental: (§2) Kd measurements were done via the KdELECT product service from DiscoverX Corporation (Freemont, Calif., USA) which also employs the KINOMEscan technology. Here, inhibitor binding constants (Kd values) are calculated from duplicate 11-point dose-response curves.

TrkA [4] = biological target: T2, TrkA (Homo sapiens, UniProt P04629); assay: KINOMEscan primary screen against TrkA; format: binding; conditions: % of control
Experimental: as §1
Results were reported as % of control (% Ctrl.=(test compound signal−positive control signal)/(DMSO signal−positive control signal). KINOMEscan is an active site-directed competition binding assay that quantitatively measures the ability of a compound to compete with an immobilized, active-site directed ligand.

TrkA [5] = biological target: T2, TrkA; assay: KdELECT Kd measurement (KINOMEscan), TrkA; format: binding
Experimental: as §2

TrkA [6] = assay: KdELECT Kd measurement (KINOMEscan), TrkA; format: binding; conditions: TrkA pKd versus AurA pKd
Experimental: as §2

[7] = duplicate 11-point dose-response curves

T2 sequence (P04629 33-796): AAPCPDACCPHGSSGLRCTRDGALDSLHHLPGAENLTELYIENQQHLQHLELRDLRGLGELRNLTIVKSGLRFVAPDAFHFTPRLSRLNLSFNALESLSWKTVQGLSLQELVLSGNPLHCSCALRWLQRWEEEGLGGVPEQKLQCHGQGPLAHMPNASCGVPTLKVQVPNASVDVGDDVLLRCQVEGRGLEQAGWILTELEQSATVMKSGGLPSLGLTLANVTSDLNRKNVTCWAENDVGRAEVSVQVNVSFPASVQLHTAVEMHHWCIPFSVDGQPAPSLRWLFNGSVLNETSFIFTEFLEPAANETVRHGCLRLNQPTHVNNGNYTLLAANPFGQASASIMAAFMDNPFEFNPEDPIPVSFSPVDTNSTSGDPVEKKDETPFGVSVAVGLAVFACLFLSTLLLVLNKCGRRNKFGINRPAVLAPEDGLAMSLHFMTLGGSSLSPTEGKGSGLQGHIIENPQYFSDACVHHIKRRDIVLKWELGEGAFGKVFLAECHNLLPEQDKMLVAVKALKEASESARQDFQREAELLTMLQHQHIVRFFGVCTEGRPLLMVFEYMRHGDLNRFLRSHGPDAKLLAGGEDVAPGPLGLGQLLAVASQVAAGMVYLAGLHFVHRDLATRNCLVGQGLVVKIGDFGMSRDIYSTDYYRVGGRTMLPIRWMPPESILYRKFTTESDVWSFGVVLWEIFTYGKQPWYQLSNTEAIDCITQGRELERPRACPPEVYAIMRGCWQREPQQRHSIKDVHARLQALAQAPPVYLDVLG
Sequence of full-length human TrkA receptor (P04629 33-796): as above
Sequence of full-length human TrkA receptor (P01138 122-241 partner): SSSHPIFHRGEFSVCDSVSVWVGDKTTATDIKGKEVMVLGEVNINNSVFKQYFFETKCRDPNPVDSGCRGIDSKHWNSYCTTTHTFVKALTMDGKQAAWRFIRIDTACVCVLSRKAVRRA

% Ctrl. AurA @100 nM (AurA [1]; 100 nM compound): 15 % Ctrl.
% Ctrl. AurA @1 μM (AurA [1]; 1 μM compound): 0.85 % Ctrl.
IC50 [2]: 0.023 µM
# Hits (panel of 97 kinases; N = 92 non-mutant kinases): 18
Selectivity Score (panel of 97 kinases; inhibited kinases/tested kinases): 0.196
AurA [pKd] (AurA [3]): 7.6
Kd (AurA [3]; [7]): 0.028 µM
% Ctrl. TrkA @10 nM (TrkA [4]; 10 nM compound): 9.3 % Ctrl.
% Ctrl. TrkA @100 nM (TrkA [4]; 100 nM compound): 0.5 % Ctrl.
TrkA [pKd] (TrkA [5]): 9.0
Kd (TrkA [5]; [7]): 0.0011 µM
ΔpKd (TrkA [6]): 1.4
Compound: Cc1cc(Nc2cc(N3CCN(C)CC3)nc(SCc3ccc(F)cc3)n2)n[nH]1 [b7, 2-{[(4-fluorophenyl)methyl]sulfanyl}-N-(5-methyl-1H-pyrazol-3-yl)-6-(4-methylpiperazin-1-yl)pyrimidin-4-amine]
List of inhibited kinases (panel of 97 kinases): TrkA, TrkB, TrkC, ABL1, ALK,; also recorded: AurA, FLT3, FMS, JAK2, JAK3,; also recorded: KDR, KIT, NuaK2, PDGFRb, PLK4,; also recorded: RET, SRC, TYK2

Source: patent US20200399250A1, “Pyrimidine Derivatives as Tropomyosin Receptor Kinase A (TRKA) Inhibitors” (BIOMED X GMBH, priority 2017, published 2020)
